Laboratory results published in US12006294B2, “Therapeutic compounds” (REGENTS OF THE UNIVERSITY OF MINNESOTA, priority 2017, dated 2024).
Entries after “also recorded” stand apart in the source; their conditions may differ. Where two headings read alike, the source gives them in different places.

Columns and labels:
[1] = system: C57BL/6J mice; assay: MOG-induced experimental autoimmune encephalomyelitis (EAE); assay type: in vivo; details: daily treatment starting on PID 10, preliminary results, FIG. 2
[2] = system: CAD5 cells; assay type: cell-based
[3] = system: Hela Cells; assay: Cellular ER stress model (tunicamycin, WST-8 cell viability); details: for AntiERStress (% Cell Survival): HeLa cells, tunicamycin 48 hours, WST-8; for viability at 2.5 µM: Homo sapiens, HeLa, 48 h
[4] = system: mice; assay: Acetaminophen hepatotoxicity (ALT, TBARS, survival); details: for elevated ALT levels after acetaminophen overdose: delayed administration post APAP administration; for hepatotoxicity of acetaminophen (ALT levels): pretreatment (30 min) before acetaminophen
[5] = system: mice; assay: Tail flick assay of drug combinations (morphine or acetaminophen + GA and/or analogs); details: acetaminophen:BC1-45-1 ratios 500:1 to 1000:1; acetate
[6] = read-out: % Cell Survival Cmpd(2.5 μM) + Tuni, Hela cells, compound 2.5 μM + tunicamycin, WST-8 viability 48 hours after tunicamycin treatment
[7] = read-out: Compounds ERS (vs Tn), ERS activity vs Tuni = % cell survival (compound)/% cell survival (tunicamycin), compound 2.5 μM

SMILES: NC(N)=N/N=C/c1ccccc1Cl [Sephin 1, reference compound]
- EAE disease severity (clinical severity score) [1]: markedly attended the EAE disease severity
- EAE disease severity (clinical severity score) ([1]; listed as sephin 1): attends the EAE disease severity
- 1/Elispot [2]: 1.63
- AntiPrion (Number of Cells × 10^4) [2]: 32 × 10^4
- EliSpot (Spots/10000 Cells) [2]: 800 Spots/10000 Cells
- Elispot (vs PC) [2]: 0.62
- ERS (vs Tn) ([3]; % cell survival (compound)/% cell survival (tunicamycin)): 1.80
- AntiERStress (% Cell Survival) [3]: 87.19 % Cell Survival

SMILES: N=C(N)N/N=C/c1c(Cl)cccc1Cl [BC1-45-1, guanabenz, acetate]
- survival rate ([4]; all treatment groups (pretreatment and delayed 0.5-8 h post acetaminophen)): 100%
- elevated ALT levels after acetaminophen overdose ([4]; acetate): reduces elevated levels of ALT; also recorded: limited the hepatotoxicity of acetaminophen
- hepatotoxicity of acetaminophen (ALT levels) ([4]; acetate): can limit the hepatotoxicity of acetaminophen; also recorded: limited the hepatotoxicity of acetaminophen
- analgesic synergy with acetaminophen in tail flick assay [5]: exhibited synergy in the analgesic activity; also recorded: provided synergy at all the time points tested

SMILES: CC(=O)N[C@@H](CS)C(=O)O [N-acetyl cysteine]
- elevated ALT levels after acetaminophen overdose [4]: less effective in limiting elevated ALT levels
- hepatotoxicity of acetaminophen (ALT levels) [4]: less effective in limiting the hepatotoxicity of acetaminophen
- animals died before completion of the study ([4]; pretreatment, acetaminophen overdose): Twenty-five
- animals died before completion of the study ([4]; treated four hours after acetaminophen overdose): Eighty-eight

SMILES: N=C(N)N/N=C\c1c(Cl)cccc1Cl [BC1-55-1, (Z)-2-(2,6-dichlorobenzylidene)hydrazinecarboximidamide acetate]
- 1/Elispot [2]: 0.59
- AntiPrion (Number of Cells × 10^4) [2]: 3 × 10^4
- EliSpot (Spots/10000 Cells) [2]: 2200 Spots/10000 Cells
- Elispot (vs PC) [2]: 1.69
- lipid peroxidation products (TBARS assay) ([4]; acetaminophen overdose, FIG. 7, acetate): can reduce the lipid peroxidation products; also recorded: limited the elevated lipid peroxidation byproducts
- survival rate ([4]; delayed administration post APAP): 100%
- elevated ALT levels after acetaminophen overdose ([4]; acetate): reduces elevated levels of ALT
- survival rate ([4]; pretreated animals, acetaminophen overdose): 100%
- hepatotoxicity of acetaminophen (ALT levels) ([4]; acetate): can limit the hepatotoxicity of acetaminophen; also recorded: limited the hepatotoxicity of acetaminophen
- AntiERStress (% Cell Survival) [3]: 64.33 % Cell Survival
- viability at 2.5 µM [3, 6]: 22.1%
- viability at 2.5 µM [3, 7]: 96%

SMILES: N=C(N)N/N=C/c1ccccc1 [BC1-295-1, (E)-2-benzylidenehydrazinecarboximidamide acetate]
- 1/Elispot [2]: 2.17
- AntiPrion (Number of Cells × 10^4) [2]: 37 × 10^4
- EliSpot (Spots/10000 Cells) [2]: 600 Spots/10000 Cells
- Elispot (vs PC) [2]: 0.46
- AntiERStress (% Cell Survival) [3]: 60.58 % Cell Survival

SMILES: N=C(N)N/N=C/c1ccc(Cl)cc1F [BC2-19-1, (E)-2-(4-chloro-2-fluorobenzylidene)hydrazinecarboximidamide acetate]
- 1/Elispot [2]: 0.72
- AntiPrion (Number of Cells × 10^4) [2]: 5 × 10^4
- EliSpot (Spots/10000 Cells) [2]: 1800 Spots/10000 Cells
- Elispot (vs PC) [2]: 1.38
- AntiERStress (% Cell Survival) [3]: 64.15 % Cell Survival

SMILES: N=C(N)N/N=C/c1ccccc1Br [BC1-297-1, (E)-2-(2-bromobenzylidene)hydrazinecarboximidamide acetate]
- 1/Elispot [2]: 0.93
- AntiPrion (Number of Cells × 10^4) [2]: 8 × 10^4
- EliSpot (Spots/10000 Cells) [2]: 1400 Spots/10000 Cells
- Elispot (vs PC) [2]: 1.08
- AntiERStress (% Cell Survival) [3]: 90.49 % Cell Survival

SMILES: N=C(N)N/N=C/c1cccc(Cl)c1 [BC2-9-1, (E)-2-(3-chlorobenzylidene)hydrazinecarboximidamide acetate]
- 1/Elispot [2]: 1.44
- AntiPrion (Number of Cells × 10^4) [2]: 33 × 10^4
- EliSpot (Spots/10000 Cells) [2]: 900 Spots/10000 Cells
- Elispot (vs PC) [2]: 0.69
- AntiERStress (% Cell Survival) [3]: 93.32 % Cell Survival

SMILES: N=C(N)N/N=C/c1ccccc1N [BC2-61-2, (E)-2-(2-aminobenzylidene)hydrazinecarboximidamide]
- 1/Elispot [2]: 1.63
- AntiPrion (Number of Cells × 10^4) [2]: 50 × 10^4
- EliSpot (Spots/10000 Cells) [2]: 800 Spots/10000 Cells
- Elispot (vs PC) [2]: 0.62
- AntiERStress (% Cell Survival) [3]: 58.21 % Cell Survival

SMILES: N=C(N)N/N=C/c1ccc(F)cc1Cl [BC2-17-1, (E)-2-(2-chloro-4-fluorobenzylidene)hydrazinecarboximidamide acetate]
- 1/Elispot [2]: 1.00
- AntiPrion (Number of Cells × 10^4) [2]: 16 × 10^4
- EliSpot (Spots/10000 Cells) [2]: 1300 Spots/10000 Cells
- Elispot (vs PC) [2]: 1.00
- AntiERStress (% Cell Survival) [3]: 104.8795 % Cell Survival

SMILES: N=C(N)N/N=C/c1c(Cl)cccc1C(F)(F)F [BC2-45-1, (E)-2-(2-chloro-6-(trifluoromethyl)benzylidene)hydrazinecarboximidamide acetate]
- 1/Elispot [2]: 0.62
- AntiPrion (Number of Cells × 10^4) [2]: 10 × 10^4
- EliSpot (Spots/10000 Cells) [2]: 2100 Spots/10000 Cells
- Elispot (vs PC) [2]: 1.62
- AntiERStress (% Cell Survival) [3]: 99.19 % Cell Survival

SMILES: N=C(N)N/N=C/c1c(Cl)ccc(Cl)c1Cl [BC1-282-1, (E)-2-(2,3,6-trichlorobenzylidene)hydrazinecarboximidamide acetate]
- 1/Elispot [2]: 0.76
- AntiPrion (Number of Cells × 10^4) [2]: 10 × 10^4
- EliSpot (Spots/10000 Cells) [2]: 1700 Spots/10000 Cells
- Elispot (vs PC) [2]: 1.31
- AntiERStress (% Cell Survival) [3]: 101.2576 % Cell Survival
- viability at 2.5 µM [3, 6]: 71.6%
- viability at 2.5 µM [3, 7]: 172%

SMILES: N=C(N)N/N=C/c1c(O)cccc1Cl [BC2-59-1, (E)-2-(2-chloro-6-hydroxybenzylidene)hydrazinecarboximidamide acetate]
- 1/Elispot [2]: 0.93
- AntiPrion (Number of Cells × 10^4) [2]: 15 × 10^4
- EliSpot (Spots/10000 Cells) [2]: 1400 Spots/10000 Cells
- Elispot (vs PC) [2]: 1.08
- AntiERStress (% Cell Survival) [3]: 104.6895 % Cell Survival

SMILES: Cl.NC(=O)N/N=C/c1c(Cl)cccc1Cl [BC1-262-1, (E)-2-(2,6-dichlorobenzylidene)hydrazinecarboxamide hydrochloride]
- 1/Elispot [2]: 1.86
- AntiPrion (Number of Cells × 10^4) [2]: 53 × 10^4
- EliSpot (Spots/10000 Cells) [2]: 700 Spots/10000 Cells
- Elispot (vs PC) [2]: 0.54
- AntiERStress (% Cell Survival) [3]: 64.7 % Cell Survival

SMILES: N=C(N)N/N=C/c1c(N)cccc1Cl [BC2-61-1, (E)-2-(2-amino-6-chlorobenzylidene)hydrazinecarboximidamide]
- 1/Elispot [2]: 0.93
- AntiPrion (Number of Cells × 10^4) [2]: 10 × 10^4
- EliSpot (Spots/10000 Cells) [2]: 1400 Spots/10000 Cells
- Elispot (vs PC) [2]: 1.08
- AntiERStress (% Cell Survival) [3]: 86.56 % Cell Survival

SMILES: Cc1ccccc1/C=N/NC(=N)N [BC2-3-1, (E)-2-(2-methylbenzylidene)hydrazinecarboximidamide acetate]
- 1/Elispot [2]: 1.86
- AntiPrion (Number of Cells × 10^4) [2]: 28 × 10^4
- EliSpot (Spots/10000 Cells) [2]: 700 Spots/10000 Cells
- Elispot (vs PC) [2]: 0.54
- AntiERStress (% Cell Survival) [3]: 82.07 % Cell Survival

SMILES: COc1cccc(Cl)c1/C=N/NC(=N)N [BC2-25-1, (E)-2-(2-chloro-6-methoxybenzylidene)hydrazinecarboximidamide acetate]
- 1/Elispot [2]: 1.08
- AntiPrion (Number of Cells × 10^4) [2]: 20 × 10^4
- EliSpot (Spots/10000 Cells) [2]: 1200 Spots/10000 Cells
- Elispot (vs PC) [2]: 0.92
- AntiERStress (% Cell Survival) [3]: 51.7 % Cell Survival
